Results reported in ChEMBL document CHEMBL1201862, “PubChem BioAssay data set” (2004).
The source made the active and inactive calls.

Assays:
NADPH oxidase 1 [1] = biological target: T1, NADPH oxidase 1 (Homo sapiens, UniProt Q9Y5S8); experiment: Late-stage luminescence-based cell-based dose response assay to identify inhibitors of NADPH oxidase 1 (NOX1): Purchased analogs 2.; type: functional
HEK293 = experiment: Fluorescence-based counterscreen for potentiators or agonists of NPY-Y2: cell-based high-throughput dose response assay to identify inhibitors of cyclic nucleotide gated ion channel (CNGC) activity. In this assay, the parental HEK293 cell line transfected with a cyclic-nucleotide gated ion channel (CNGC)-based cAMP sensor is used to measure inhibition of isoproterenol-induced CNGC activity by test compound.; type: functional; conditions: Homo sapiens;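 note: stimulus is 1 µM isoproterenol at EC100 plus PDE inhibitor Ro 20-1724 at 25 µM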
[2] = biological target: Neuropeptide Y receptor type 2 (Homo sapiens, UniProt P49146); experiment: Fluorescence-based cell-based high-throughput dose response assay for agonists of NPY-Y2. [Related pubchem assays: 1703 (Screening assay (CNGC inhibitors).), 1359 (Screening assay (NPY-Y2 potentiators or agonists).), 1304 (Screening assay (NPY-Y1 potentiators or agonists).), 1710 (Screening assay (NPY-Y2 agonists).), 1791 (Summary AID.)]; type: functional
Chain of Neuropeptide Y receptor type 2 (P49146 whole entry): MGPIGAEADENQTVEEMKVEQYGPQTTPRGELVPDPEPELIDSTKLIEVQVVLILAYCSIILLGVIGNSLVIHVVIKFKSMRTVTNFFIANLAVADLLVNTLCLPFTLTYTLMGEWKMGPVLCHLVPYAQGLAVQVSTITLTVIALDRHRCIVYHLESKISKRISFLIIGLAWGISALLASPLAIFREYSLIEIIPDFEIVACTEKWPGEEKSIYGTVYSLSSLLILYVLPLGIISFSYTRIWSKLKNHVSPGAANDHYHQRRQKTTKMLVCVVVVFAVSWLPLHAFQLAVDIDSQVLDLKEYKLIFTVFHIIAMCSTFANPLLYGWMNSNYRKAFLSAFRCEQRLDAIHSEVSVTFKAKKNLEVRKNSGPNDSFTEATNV

[3] = biological target: Neuropeptide Y receptor type 1 (Homo sapiens, UniProt P25929); experiment: Fluorescence-based counterscreen for agonists of NPY-Y2: cell-based high-throughput dose response assay for agonists of NPY-Y1.; type: functional
Chain of Neuropeptide Y receptor type 1 (P25929 whole entry): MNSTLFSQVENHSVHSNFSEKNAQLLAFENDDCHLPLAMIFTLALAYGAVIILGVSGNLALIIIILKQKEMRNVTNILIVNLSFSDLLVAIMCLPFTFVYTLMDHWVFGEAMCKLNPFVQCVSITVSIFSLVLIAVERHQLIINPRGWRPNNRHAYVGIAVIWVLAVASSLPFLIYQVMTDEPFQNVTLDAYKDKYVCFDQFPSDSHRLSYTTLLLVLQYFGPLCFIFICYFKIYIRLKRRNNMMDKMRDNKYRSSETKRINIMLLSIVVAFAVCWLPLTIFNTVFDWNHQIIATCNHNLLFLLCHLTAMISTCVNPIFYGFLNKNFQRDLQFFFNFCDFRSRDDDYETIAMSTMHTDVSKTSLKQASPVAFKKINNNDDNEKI

[4] = biological target: Neuropeptides B/W receptor type 1 (Homo sapiens, UniProt P48145); experiment: Fluorescence-based dose response cell-based high throughput screening assay to identify antagonists of the G-protein coupled receptor 7 (GPR7). [Related pubchem assays: 1952 (Screening assay (GPR7 antagonists).), 1880 (Summary AID.)]; type: functional
Chain of Neuropeptides B/W receptor type 1 (P48145 whole entry): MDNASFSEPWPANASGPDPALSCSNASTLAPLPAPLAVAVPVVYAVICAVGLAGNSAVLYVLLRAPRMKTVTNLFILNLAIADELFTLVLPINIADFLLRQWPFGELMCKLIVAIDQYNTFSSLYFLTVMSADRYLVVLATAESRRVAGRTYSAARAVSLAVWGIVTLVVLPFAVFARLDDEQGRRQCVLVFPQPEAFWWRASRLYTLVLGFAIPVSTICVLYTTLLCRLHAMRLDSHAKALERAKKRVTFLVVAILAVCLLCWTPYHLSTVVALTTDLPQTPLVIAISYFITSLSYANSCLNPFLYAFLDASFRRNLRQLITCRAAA

[5] = biological target: Melanin-concentrating hormone receptor 1 (Homo sapiens, UniProt Q99705); experiment: Fluorescence-based counterscreen for antagonists of the G-protein coupled receptor 7 (GPR7): cell-based high throughput dose response assay to identify antagonists of the melanin-concentrating hormone receptor 1 (MCHR1).; type: functional
Chain of Melanin-concentrating hormone receptor 1 (Q99705 whole entry): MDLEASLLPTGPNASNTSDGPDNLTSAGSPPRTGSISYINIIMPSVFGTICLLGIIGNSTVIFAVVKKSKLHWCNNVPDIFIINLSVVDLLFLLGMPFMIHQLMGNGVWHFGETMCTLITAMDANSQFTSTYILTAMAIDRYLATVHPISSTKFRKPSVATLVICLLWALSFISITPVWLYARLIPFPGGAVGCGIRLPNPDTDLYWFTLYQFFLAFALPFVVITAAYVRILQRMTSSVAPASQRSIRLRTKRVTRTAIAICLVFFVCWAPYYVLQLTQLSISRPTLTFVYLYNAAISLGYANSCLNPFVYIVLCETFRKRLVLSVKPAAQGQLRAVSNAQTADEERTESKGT

[6] = biological target: Peroxisome proliferator-activated receptor gamma/Nuclear receptor corepressor 2 (Homo sapiens, UniProt P37231+Q9Y618); experiment: Counterscreen for NR2E3 inverse agonists: TR-FRET-based biochemical high throughput dose response assay to identify inverse agonists of the interaction between peroxisome proliferator-activated receptor gamma (PPARg) and nuclear receptor co-repressor 2 (NCOR2).; type: functional
[7] = biological target: Photoreceptor-specific nuclear receptor (Homo sapiens, UniProt Q9Y5X4); experiment: ligands suppressing NR2E3 nuclear receptor activity – biochemical, TR-FRET, dose response (AID 463256); type: functional
Chain of Photoreceptor-specific nuclear receptor (Q9Y5X4 whole entry): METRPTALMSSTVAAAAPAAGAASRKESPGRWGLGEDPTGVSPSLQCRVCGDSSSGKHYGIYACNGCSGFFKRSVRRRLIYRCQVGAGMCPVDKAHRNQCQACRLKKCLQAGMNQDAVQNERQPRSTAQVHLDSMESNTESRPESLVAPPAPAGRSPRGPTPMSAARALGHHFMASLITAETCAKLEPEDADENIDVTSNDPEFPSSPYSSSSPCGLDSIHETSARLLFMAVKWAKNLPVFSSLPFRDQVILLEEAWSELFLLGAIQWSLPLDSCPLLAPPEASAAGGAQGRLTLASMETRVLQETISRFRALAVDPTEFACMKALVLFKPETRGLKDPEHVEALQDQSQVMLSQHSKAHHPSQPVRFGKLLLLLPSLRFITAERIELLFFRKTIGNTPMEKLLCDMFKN

[8] = biological target: G-protein coupled receptor 55 (Homo sapiens, UniProt Q9Y2T6); experiment: selective activators of receptor GPR55 – imaging, U2OS cells, beta-arrestin-GFP redistribution, primary screen (AID 1961); type: functional
Chain of G-protein coupled receptor 55 (Q9Y2T6 whole entry, the tested form may be a part): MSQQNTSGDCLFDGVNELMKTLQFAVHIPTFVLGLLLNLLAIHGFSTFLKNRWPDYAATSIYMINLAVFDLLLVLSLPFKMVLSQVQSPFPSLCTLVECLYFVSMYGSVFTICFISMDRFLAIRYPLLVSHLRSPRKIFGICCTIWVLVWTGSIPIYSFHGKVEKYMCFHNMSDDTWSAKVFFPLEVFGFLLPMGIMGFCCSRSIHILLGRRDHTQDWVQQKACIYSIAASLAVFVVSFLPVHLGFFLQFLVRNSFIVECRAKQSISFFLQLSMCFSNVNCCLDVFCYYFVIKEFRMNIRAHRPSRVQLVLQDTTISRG

[9] = CCR5-tropic HIV-1 fusion blockers – cell-based, CCR5-tropic Env, dose response (AID 2279); type: functional
[10] = biological target: Induced myeloid leukemia cell differentiation protein Mcl-1 (Homo sapiens, UniProt Q07820); type: functional
Chain of Induced myeloid leukemia cell differentiation protein Mcl-1 (Q07820 whole entry): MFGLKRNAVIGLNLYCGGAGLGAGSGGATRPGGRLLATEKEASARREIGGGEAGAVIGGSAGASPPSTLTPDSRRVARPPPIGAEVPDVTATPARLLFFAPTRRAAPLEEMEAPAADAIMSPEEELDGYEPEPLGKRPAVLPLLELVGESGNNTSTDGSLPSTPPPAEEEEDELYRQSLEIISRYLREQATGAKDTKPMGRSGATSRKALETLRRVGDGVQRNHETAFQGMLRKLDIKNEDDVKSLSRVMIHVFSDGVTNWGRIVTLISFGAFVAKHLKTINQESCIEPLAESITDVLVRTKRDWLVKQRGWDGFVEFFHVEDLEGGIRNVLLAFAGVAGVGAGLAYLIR

[11] = system: Streptococcus sp. 'group A'; experiment: Streptococcus pyogenes SK(-)GAS viability under kanamycin – luminescence, BacTiterGlo, confirmation, counter-screen for streptokinase expression inhibitor project, dose response (AID 1900); type: functional, organism-based
cells [12] = type: functional, cell-based
Streptokinase A = biological target: T2, Streptokinase A (Streptococcus pyogenes serotype M1, UniProt P10520); experiment: viability-normalized secreted streptokinase activity reduction – plasminogen activation absorbance, OD405, dose response (AID 1914); type: functional, Streptococcus pyogenes M1 GAS;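 note: secreted streptokinase activity via plasminogen activation per viability signal from cell pellet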
T2 sequence (P10520 whole entry): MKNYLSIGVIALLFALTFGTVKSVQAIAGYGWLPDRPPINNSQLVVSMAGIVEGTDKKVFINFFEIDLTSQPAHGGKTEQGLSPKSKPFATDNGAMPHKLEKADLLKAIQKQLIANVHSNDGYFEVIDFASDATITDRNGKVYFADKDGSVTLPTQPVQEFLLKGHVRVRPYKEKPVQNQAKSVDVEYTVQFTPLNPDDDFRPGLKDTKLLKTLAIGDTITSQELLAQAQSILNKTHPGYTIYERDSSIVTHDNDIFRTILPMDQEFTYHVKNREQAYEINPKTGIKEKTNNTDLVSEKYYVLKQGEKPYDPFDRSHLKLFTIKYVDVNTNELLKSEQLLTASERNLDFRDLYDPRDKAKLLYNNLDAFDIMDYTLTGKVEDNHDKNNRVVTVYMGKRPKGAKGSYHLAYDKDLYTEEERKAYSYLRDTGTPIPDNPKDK

[13] = Luminescence-based counterscreen assay for KLF5 inhibitors: dose response cell-based high throughput screening assay to identify cytotoxic compounds using the IEC-6 intestinal epithelial cell line. [Related pubchem assays: 1700 (Primary screen.), 1834 (Confirmation screen.), 1858 (Summary AID.), 1905 (Counterscreen.)]; type: functional
cells [14] = type: functional, cell-based; remark: listed apart in the source
Streptococcus = experiment: GAS UMAA2166 growth inhibition – luminescence, BacTiterGlo, counter-screen for streptokinase expression inhibitor project, dose response (AID 1915); type: functional, organism-based;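 note: potency for reduction of bacterial viability or growth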
[15] = THP-1 cell cytotoxicity, dose response, cytotoxicity control for non-replicating M. tuberculosis project (AID 489025); type: functional
[16] = HepG2 cell cytotoxicity, dose response, cytotoxicity control for non-replicating M. tuberculosis project (AID 489018); type: functional; conditions: Mycobacterium tuberculosis
[17] = Vero E6 cell cytotoxicity, dose response, cytotoxicity control for non-replicating M. tuberculosis project, secondary assay (AID 492998); type: functional, VeroE6; conditions: Vero C1008
cells [18] = type: functional
INS1 = experiment: INS-1E survival protection against cytokine death – cell-based, luminescence, retest, dose response (AID 449756); type: functional; conditions: Rattus norvegicus;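 note: cell death triggered by IL-1 beta plus TNF-alpha plus IFN-gamma mixture; protective hits raise ATP signal compared with cytokine alone wells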
[19] = M. tuberculosis growth inhibition, HTS (AID 449762); type: functional
[20] = microbe, parasite or virus in culture; type: functional; conditions: Mycobacterium tuberculosis
Estrogen receptor beta [21] = biological target: T3, Estrogen receptor beta (Homo sapiens, UniProt Q92731);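 note: recombinant ER-beta bound to coactivator SRC1 peptide in presence of estradiol agonist; inhibitors block coactivator peptide binding and lower the FRET signal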
T3 sequence (Q92731 whole entry): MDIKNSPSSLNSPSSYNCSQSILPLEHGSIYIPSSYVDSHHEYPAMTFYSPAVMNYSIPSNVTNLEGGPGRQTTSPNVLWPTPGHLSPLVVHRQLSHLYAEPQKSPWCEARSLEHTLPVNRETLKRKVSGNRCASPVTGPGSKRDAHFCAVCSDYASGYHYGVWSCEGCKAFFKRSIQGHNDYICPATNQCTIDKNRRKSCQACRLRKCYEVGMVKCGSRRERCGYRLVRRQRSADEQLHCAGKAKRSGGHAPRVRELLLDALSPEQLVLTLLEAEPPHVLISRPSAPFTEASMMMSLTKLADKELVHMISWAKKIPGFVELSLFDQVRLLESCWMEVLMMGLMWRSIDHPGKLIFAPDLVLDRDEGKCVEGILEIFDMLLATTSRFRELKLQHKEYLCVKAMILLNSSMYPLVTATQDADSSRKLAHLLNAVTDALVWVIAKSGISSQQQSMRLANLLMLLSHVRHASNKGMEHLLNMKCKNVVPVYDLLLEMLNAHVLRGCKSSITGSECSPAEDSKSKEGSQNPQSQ

Estrogen receptor beta [22] = biological target: T3, Estrogen receptor beta; experiment: blockers of SRC-3 recruitment to ERβ – biochemical, ELISA, streptavidin-HRP readout, orthogonal assay, confirmation (AID 1060)
Estrogen receptor = Estrogen receptor (Homo sapiens, UniProt P03372);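 note: potency for inhibiting coactivator peptide recruitment to the receptor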
Chain of Estrogen receptor (P03372 whole entry): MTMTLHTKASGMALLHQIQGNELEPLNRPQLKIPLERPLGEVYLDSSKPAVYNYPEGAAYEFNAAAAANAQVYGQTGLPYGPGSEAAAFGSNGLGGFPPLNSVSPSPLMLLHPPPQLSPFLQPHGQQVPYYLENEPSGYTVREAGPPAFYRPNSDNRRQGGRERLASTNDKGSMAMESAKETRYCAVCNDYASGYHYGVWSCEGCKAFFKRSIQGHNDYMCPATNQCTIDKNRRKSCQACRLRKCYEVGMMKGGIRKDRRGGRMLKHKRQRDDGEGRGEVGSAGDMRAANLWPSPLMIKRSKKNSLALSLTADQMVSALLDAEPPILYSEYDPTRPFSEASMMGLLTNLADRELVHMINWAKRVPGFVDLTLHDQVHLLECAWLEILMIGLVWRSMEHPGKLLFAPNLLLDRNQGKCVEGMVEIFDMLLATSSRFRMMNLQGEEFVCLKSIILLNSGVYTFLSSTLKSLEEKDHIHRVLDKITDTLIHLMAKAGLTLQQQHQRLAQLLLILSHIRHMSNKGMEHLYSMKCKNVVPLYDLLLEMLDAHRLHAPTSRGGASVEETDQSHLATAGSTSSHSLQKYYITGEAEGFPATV

NADPH oxidase 1 [23] = biological target: T1, NADPH oxidase 1; type: functional, cell-based
[24] = biological target: Bifunctional protein GlmU (Mycobacterium tuberculosis, UniProt P9WMN3); experiment: Inhibitors of Mycobacterial Glucosamine-1-phosphate acetyl transferase (GlmU). Secondary screen.; set-up: species or system Mycobacterium tuberculosis H37Rv
Chain of Bifunctional protein GlmU (P9WMN3 whole entry): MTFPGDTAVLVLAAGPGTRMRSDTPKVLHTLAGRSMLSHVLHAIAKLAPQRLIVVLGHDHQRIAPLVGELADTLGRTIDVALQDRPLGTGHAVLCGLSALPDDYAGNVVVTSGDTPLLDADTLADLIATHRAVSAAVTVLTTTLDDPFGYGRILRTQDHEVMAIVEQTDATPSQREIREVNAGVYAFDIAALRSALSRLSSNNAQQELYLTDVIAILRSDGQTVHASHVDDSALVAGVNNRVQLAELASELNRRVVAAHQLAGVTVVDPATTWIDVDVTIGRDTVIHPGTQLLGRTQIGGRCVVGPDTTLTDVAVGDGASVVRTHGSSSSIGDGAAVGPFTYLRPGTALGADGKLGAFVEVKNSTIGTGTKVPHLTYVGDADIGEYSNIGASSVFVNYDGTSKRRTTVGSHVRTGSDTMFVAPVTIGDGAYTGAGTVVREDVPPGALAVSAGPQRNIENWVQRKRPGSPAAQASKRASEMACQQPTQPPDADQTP

T1 sequence (Q9Y5S8 whole entry): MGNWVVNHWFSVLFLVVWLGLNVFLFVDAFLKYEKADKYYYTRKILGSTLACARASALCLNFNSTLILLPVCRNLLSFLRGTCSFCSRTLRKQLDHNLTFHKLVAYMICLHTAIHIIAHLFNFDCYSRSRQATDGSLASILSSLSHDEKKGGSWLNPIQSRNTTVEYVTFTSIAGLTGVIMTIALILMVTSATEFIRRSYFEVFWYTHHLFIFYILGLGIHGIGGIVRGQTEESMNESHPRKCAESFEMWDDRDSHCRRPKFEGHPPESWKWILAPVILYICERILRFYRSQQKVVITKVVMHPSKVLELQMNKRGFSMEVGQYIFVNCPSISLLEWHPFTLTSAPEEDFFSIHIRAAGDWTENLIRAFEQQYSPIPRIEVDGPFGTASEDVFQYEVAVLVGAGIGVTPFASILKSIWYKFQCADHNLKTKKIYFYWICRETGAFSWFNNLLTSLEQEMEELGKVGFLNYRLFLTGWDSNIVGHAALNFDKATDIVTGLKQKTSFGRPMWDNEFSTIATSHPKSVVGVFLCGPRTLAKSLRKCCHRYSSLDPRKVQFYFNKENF

In the case of `O=C(Oc1ccccc1)c1cc2cc([N+](=O)[O-])ccc2s1`, the IC50 (NADPH oxidase 1 [1]) is reported as > 17 µM (not active).

For `c1ccc(CSc2nc3c[nH]cnc-3n2)cc1`, the EC50 (HEK293) was > 35.4 µM (not active), the EC50 [2] was > 35.4 µM (not active) and the EC50 [3] was > 35.4 µM (not active).

In the case of `CCOC(=O)N1CCN(S(=O)(=O)c2ccc(C(=O)N(CCCN(C)C)c3nc4ccc(CC)cc4s3)cc2)CC1`, the IC50 [4] is reported as 14.2 µM (not active) and the IC50 [5] is reported as 18.3 µM (not active).

For `COc1cccc2sc(NC(=O)c3ccc(Br)s3)nc12`, the IC50 [6] was 2.95 µM (active), the IC50 [7] was 3.41 µM (active) and the EC50 [8] was > 32 µM (inactive).

With `COc1cc(/C=C2\SC(=O)N(Cc3ccc(F)cc3)C2=O)cc([N+](=O)[O-])c1O` the IC50 [9] was 45.6 µM (active) and the IC50 [10] was 7.65 µM (active).

With `CCOc1cccc(/C=N/NC(=O)c2ccc3c(c2)OCCO3)c1O` the EC50 [11] was 1.49 µM (active), the EC50 (cells [12]) was 50.3 µM (active) and the EC50 (Streptokinase A) was 1.11 µM (active). The IC50 [13] was 12.5 µM (not active), the EC50 (cells [14]) was > 350 µM (not active) and the EC50 (Streptococcus) was 2.77 µM (active). The CC50 [15] was 3.18 µM (active), the CC50 [16] was 4.3 µM (active) and the CC50 [17] was 6.58 µM (active). The IC50 (cells [18]) was > 50 µM (active) and the AC50 (INS1) was 3.01 µM (active).

For `COc1ccccc1/C=N/NC(=O)NC12CC3CC(CC(C3)C1)C2`, the IC50 [19] was > 100 µM (active) and the CC50 [20] was > 40 µM (active).

For `Cc1ccccc1-n1c(SC/C(O)=C(\C#N)c2nc3ccccc3[nH]2)nnc1-c1ccncc1`, the IC50 (Estrogen receptor beta [21]) was > 50 µM (not active) and the IC50 (Estrogen receptor beta [22]) was 0.371 µM (not active).

In the case of `CCCCOC(=O)c1cc(-c2ccc(/C=N/n3cnnc3)o2)ccc1Cl`, the IC50 (Estrogen receptor) is reported as > 50 µM (not active).

For `O=C(Nc1ccccc1)Nc1nc(-c2ccccc2)cs1`, the IC50 (NADPH oxidase 1 [23]) was > 17 µM (not active).

For `O=C1OCC2OC(O)C(O)C(O)C2OC(=O)c2cc(O)c(O)c(O)c2-c2c(O)c(O)c3oc(=O)c4c(c(O)c(O)c5oc(=O)c2c3c54)-c2c1cc(O)c(O)c2O` (stereo not given), the IC50 [24] was < 1 µM (active) and the IC50 [10] was 1.56 µM (active).
